“And” between values parts separate entries of the source, which are not always exact repeats. Equal entries are not always repeated. “Also recorded” adds a separate entry of the source. Marks after values point to notes of the source that are not given here.
Tested on: Caco-2 cell monolayer
Test: Caco-2 monolayer transport (bioavailability) study, AB and BA directions
Type: in vitro ADME, Homo sapiens
Details: for detection at the acceptor side of the Caco-2 cell monolayer: AB and BA experiments; for TE (%) transport efficiency: after 180 min
Description: A reversed phase C18 column (Luna 5 μm C18(2) 100 Å, LC Column 250 × 4.6 mm, Phenomenex) was used to separate the polyphenols at a flow rate of 0.7 mL/min with an injection volume of 60 µL. The detection was carried out at 520 nm for anthocyanins (M3G, D3G and Pet3G), at 328 nm for CA, at 356 nm for flavonols (Q3G, K3Gal and K3G) and at 280 nm for GA and SA. The mobile phases were (A) acetonitrile 100% and (B) water 0.1% trifluoroacetic acid (v/v). The gradient was programmed as follows: 10% A 0 min, 10–80% A (0–20 min), 80–100% A (20–25 min), 100% A (25–30 min); 10% A (30–35 min) and 10% A (35–40 min). Every polyphenol was quantified using the corresponding reference standard calibration curve. Each of the quantified phenolic compound concentration was expressed as mg/mL
For the transport experiment Caco-2 cells were cultured at a density of 4 × 10^4 cells/cm^2 in Transwell inserts (12 mm i.d., 1.12 cm^2 growth area, 0.4 µm mean pore size polycarbonate membranes, Corning Inc., Milwaukee, WI, USA) placed in 12-well plates. Caco-2 cells were grown in DMEM in an incubator at 37 °C in a humidified atmosphere containing 5% CO2.
Bioavailability studies were performed in triplicate after 21 days of cell growth. Only inserts with stable TEER values higher than ≥300 Ω cm^2 were considered acceptable to perform the bioavailability study. For that purpose, DMEM media was removed, the monolayer was washed with PBS and HBSS was supplied to the cells.
Likewise, the GSE stock solution was diluted in HBSS medium to prepare GSE solutions S1 and S2. GSE solutions S1 and S2 had concentrations of 15 mg/mL and 22 mg/mL, respectively. These concentrations were established considering previous studies with grape pomace extracts that concluded that intestinal concentrations of 1–2% (w/v) show potential bioactivities and are safe to be used as a food ingredient.
The apical side represents the intestinal lumen and the basolateral side represents the bloodstream. Each sample (100 µL) was immediately acidified with 1M HCl to a final concentration of 0.007 M and subsequently frozen at −20 °C until analysis by HPLC (according to the method described in Section 2.5). Each experiment was carried out on 3 individual wells. The transport efficiency (TE) percentage was calculated according to Equation (2):Transport efficiency (%) = (C/C0) × 100(2) where, C is the polyphenol concentration at the acceptor side over time and C0 is the initial concentration at the donor side. TE values were calculated for the nine polyphenols identified in the grape skin extract.
The apparent permeability coefficient (Papp) of the polyphenols in GSE was calculated for apical to basolateral side (AB) and basolateral to apical side (BA) flux studies according to Equation (3):Papp (cm/s) = (dQ/dt) × (VR/AC0)(3) where, dQ/dt is the permeability rate which means the steady-state linear rate of change of concentration (mg/L) per second (s) at the acceptor side; A is the surface area of the cell monolayer (1.12 cm^2). C0 is the initial concentration at the donor side (mg/L) at t = 0 s and VR is the volume of the solution of the acceptor side (mL).
The efflux ratio (ER) of the polyphenol was assessed by calculating the Equation (4):ER = Papp (BA)/Papp (AB)(4) where, Papp (BA) is the apparent permeability coefficient of the polyphenol from basolateral to apical side and Papp (AB) is the apparent permeability coefficient from apical to basolateral side. ER is a measure of the relative contributions of active and passive transport to bi-direction flux across the cell monolayer.

[1] = AB experiment, donor side, S1 (15 mg/mL GSE)
[2] = AB experiment, donor side, S2 (22 mg/mL GSE)
[3] = BA experiment, donor side, S1 (15 mg/mL GSE)
[4] = BA experiment, donor side, S2 (22 mg/mL GSE)
[5] = BA experiment, acceptor side, S1 (15 mg/mL GSE)
[6] = BA experiment, acceptor side, S2 (22 mg/mL GSE)

| Apical Side 0 min [1] | Apical Side 75 min [1] | Apical Side 90 min [1] | Apical Side 115 min [1] | Apical Side 180 min [1] | Apical Side 0 min [2] | Apical Side 75 min [2] | Apical Side 90 min [2] | Apical Side 115 min [2] | Apical Side 180 min [2] | Basolateral Side 0 min [3] | Basolateral Side 75 min [3] | Basolateral Side 90 min [3] | Basolateral Side 115 min [3] | Basolateral Side 180 min [3] | Basolateral Side 0 min [4] | Basolateral Side 75 min [4] | Basolateral Side 90 min [4] | Basolateral Side 115 min [4] | Basolateral Side 180 min [4] | SMILES | also measured |
| --- | --- | --- | --- | --- | --- | --- | --- | --- | --- | --- | --- | --- | --- | --- | --- | --- | --- | --- | --- | --- | --- |
| 2.1 ± 0.2 ^a mg/L | 1.9 ± 0.2 ^a,b mg/L | 1.8 ± 0.1 ^b,c mg/L | 1.6 ± 0.1 ^c mg/L | 1.5 ± 0.1 ^c mg/L | 4.7 ± 0.1 ^a mg/L | 4.4 ± 0.1 ^b mg/L | 4.3 ± 0.1 ^c mg/L | 4.05 ± 0.09 ^c mg/L | 3.94 ± 0.08 ^c mg/L | 2.7 ± 0.2 ^a mg/L | 2.6 ± 0.2 ^a,b mg/L | 2.5 ± 0.2 ^b,c mg/L | 2.4 ± 0.2 ^b,c mg/L | 2.3 ± 0.2 ^c mg/L | 3.6 ± 0.2 ^a mg/L | 3.5 ± 0.2 ^a mg/L | 3.4 ± 0.2 ^a mg/L | 3.4 ± 0.2 ^d mg/L | 3.4 ± 0.2 ^a mg/L | OC[C@H]1O[C@@H](Oc2cc3c(O)cc(O)cc3[o+]c2-c2cc(O)c(O)c(O)c2)[C@H](O)[C@@H](O)[C@@H]1O [D3G, delphinidin-3-O-glucoside] | detection at the acceptor side of the Caco-2 cell monolayer: not detected |
| 0.63 ± 0.02 ^a mg/L | 0.52 ± 0.02 ^b mg/L | 0.45 ± 0.02 ^c mg/L | 0.39 ± 0.01 ^d mg/L | 0.35 ± 0.01 ^c mg/L | 1.23 ± 0.02 ^a mg/L | 1.09 ± 0.02 ^b mg/L | 1.01 ± 0.02 ^c mg/L | 0.88 ± 0.02 ^d mg/L | 0.79 ± 0.02 ^c mg/L | 0.26 ± 0.01 mg/L and 0.26 ± 0.01 ^a mg/L | 0.19 ± 0.01 ^b mg/L | 0.13 ± 0.01 ^c mg/L | 0.08 ± 0.01 ^d mg/L | 0.05 ± 0.01 mg/L and 0.05 ± 0.01 ^c mg/L | 0.79 ± 0.02 ^a mg/L | 0.75 ± 0.02 ^b mg/L | 0.71 ± 0.02 ^c mg/L | 0.67 ± 0.02 ^d mg/L | 0.64 ± 0.01 ^c mg/L | O=c1c(OC2O[C@H](CO)[C@H](O)[C@H](O)[C@H]2O)c(-c2ccc(O)cc2)oc2cc(O)cc(O)c12 (stereo partly drawn) [K3Gal, kaempferol-3-galactoside] | detection at the acceptor side of the Caco-2 cell monolayer: not detected; reduction in concentration on the basolateral (donor) side (BA experiment, S1 (15 mg/mL GSE), 0 to 180 min): 81 ± 2% |
| 1.8 ± 0.1 ^a mg/L | 1.4 ± 0.1 ^b mg/L | 1.2 ± 0.1 ^c mg/L | 1.02 ± 0.10 ^c,d mg/L | 0.9 ± 0.1 ^d mg/L | 4.4 ± 0.2 ^a mg/L | 4.0 ± 0.1 ^b mg/L | 3.7 ± 0.1 ^c mg/L | 3.33 ± 0.09 ^c mg/L | 3.16 ± 0.08 ^c mg/L | 4.3 ± 0.1 ^a mg/L | 4.0 ± 0.1 ^b mg/L | 3.8 ± 0.1 ^b,c mg/L | 3.65 ± 0.09 ^c,d mg/L | 3.49 ± 0.08 ^d mg/L | 3.1 ± 0.2 ^a mg/L | 3.0 ± 0.2 ^a mg/L | 2.9 ± 0.2 ^a mg/L | 2.7 ± 0.2 ^a mg/L | 2.7 ± 0.2 ^a mg/L | COc1cc(-c2[o+]c3cc(O)cc(O)c3cc2O[C@@H]2O[C@H](CO)[C@@H](O)[C@H](O)[C@H]2O)cc(O)c1O [Pet3G, petunidin-3-O-glucoside] | detection at the acceptor side of the Caco-2 cell monolayer: not detected |
| 0.23 ± 0.01 ^a mg/L | 0.18 ± 0.01 ^b mg/L | 0.14 ± 0.01 ^c mg/L | 0.10 ± 0.00 ^d mg/L | 0.08 ± 0.00 ^c mg/L | 0.61 ± 0.01 ^a mg/L | 0.52 ± 0.01 ^b mg/L | 0.47 ± 0.01 ^c mg/L | 0.41 ± 0.01 ^d mg/L | 0.37 ± 0.01 ^c mg/L | 0.28 ± 0.02 ^a mg/L | 0.24 ± 0.02 ^b mg/L | 0.21 ± 0.02 ^c mg/L | 0.18 ± 0.01 ^d mg/L | 0.15 ± 0.01 ^c mg/L | 0.41 ± 0.03 ^a mg/L | 0.38 ± 0.03 ^a,b mg/L | 0.36 ± 0.03 ^a,b,c mg/L | 0.34 ± 0.03 ^b,c mg/L | 0.32 ± 0.03 ^c mg/L | O=c1c(O[C@@H]2O[C@H](CO)[C@@H](O)[C@H](O)[C@H]2O)c(-c2ccc(O)c(O)c2)oc2cc(O)cc(O)c12 [Q3G, quercetin-3-glucoside] | detection at the acceptor side (AB experiments, basolateral side): not detected; TE (%) transport efficiency (BA experiment, S1 (15 mg/mL GSE)): 4.1 ± 0.1%; TE (%) transport efficiency (BA experiment, S2 (22 mg/mL GSE)): 3.6 ± 0.1%; Apical Side 75 min [5]: 0.009 ± 0.001 ^b mg/L; Apical Side 90 min [5]: 0.010 ± 0.001 ^b,c mg/L; Apical Side 115 min [5]: 0.011 ± 0.001 ^c mg/L; Apical Side 180 min [5]: 0.011 ± 0.001 ^c mg/L; Apical Side 75 min [6]: 0.013 ± 0.001 ^b mg/L; Apical Side 90 min [6]: 0.013 ± 0.001 ^b,c mg/L; Apical Side 115 min [6]: 0.014 ± 0.001 ^c,d mg/L; Apical Side 180 min [6]: 0.015 ± 0.001 ^d mg/L; detection at the acceptor side (BA experiments, apical side): detected; also recorded: quantified |

— article PMC12248599, “Exploring the Bioavailability of Red Grape Skin Extract Polyphenols: A Caco-2 Cell Model Study” (Foods, 2025)
